Source: patent US10034861B2 (priority 2016, dated 2018)
Where two headings read alike, the source gives them in different places.

Experiments:
Assay type in all cases: biochemical
PDE1B = PDE1B (Homo sapiens (Human), UniProt Q01064); test: PDE1 inhibition assay (PDE1B); details: 15 nM tritium labelled cAMP, 1 hr at room temperature, SPA beads
Source text: (§1) Table 1 lists the IC50 value for inhibition of PDE1 by the compounds of the invention. […] PDE1 assays are described in the Experimental Section.

PDE1A = PDE1A (Homo sapiens (Human), UniProt P54750); test: biochemical; details: 15 nM tritium labelled cAMP, 1 hr at room temperature, SPA beads
Sequence of PDE1A (P54750 whole entry): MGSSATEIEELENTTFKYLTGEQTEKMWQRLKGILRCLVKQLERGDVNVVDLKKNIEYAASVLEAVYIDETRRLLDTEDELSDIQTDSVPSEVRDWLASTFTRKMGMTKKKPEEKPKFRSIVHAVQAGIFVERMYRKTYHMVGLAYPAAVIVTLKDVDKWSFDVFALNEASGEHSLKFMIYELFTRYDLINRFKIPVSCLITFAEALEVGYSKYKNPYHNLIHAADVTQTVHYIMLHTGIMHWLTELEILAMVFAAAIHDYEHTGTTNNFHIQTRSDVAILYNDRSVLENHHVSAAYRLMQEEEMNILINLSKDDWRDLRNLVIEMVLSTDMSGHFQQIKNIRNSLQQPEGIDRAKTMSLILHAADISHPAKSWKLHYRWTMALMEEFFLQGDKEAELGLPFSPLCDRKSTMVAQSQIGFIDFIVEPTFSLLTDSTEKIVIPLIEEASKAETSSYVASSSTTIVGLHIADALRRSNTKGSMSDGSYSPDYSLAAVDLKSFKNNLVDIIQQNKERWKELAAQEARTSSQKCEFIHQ
Source text: as §1

PDE1C = PDE1C (Homo sapiens (Human), UniProt Q14123); test: biochemical
Sequence of PDE1C (Q14123 whole entry): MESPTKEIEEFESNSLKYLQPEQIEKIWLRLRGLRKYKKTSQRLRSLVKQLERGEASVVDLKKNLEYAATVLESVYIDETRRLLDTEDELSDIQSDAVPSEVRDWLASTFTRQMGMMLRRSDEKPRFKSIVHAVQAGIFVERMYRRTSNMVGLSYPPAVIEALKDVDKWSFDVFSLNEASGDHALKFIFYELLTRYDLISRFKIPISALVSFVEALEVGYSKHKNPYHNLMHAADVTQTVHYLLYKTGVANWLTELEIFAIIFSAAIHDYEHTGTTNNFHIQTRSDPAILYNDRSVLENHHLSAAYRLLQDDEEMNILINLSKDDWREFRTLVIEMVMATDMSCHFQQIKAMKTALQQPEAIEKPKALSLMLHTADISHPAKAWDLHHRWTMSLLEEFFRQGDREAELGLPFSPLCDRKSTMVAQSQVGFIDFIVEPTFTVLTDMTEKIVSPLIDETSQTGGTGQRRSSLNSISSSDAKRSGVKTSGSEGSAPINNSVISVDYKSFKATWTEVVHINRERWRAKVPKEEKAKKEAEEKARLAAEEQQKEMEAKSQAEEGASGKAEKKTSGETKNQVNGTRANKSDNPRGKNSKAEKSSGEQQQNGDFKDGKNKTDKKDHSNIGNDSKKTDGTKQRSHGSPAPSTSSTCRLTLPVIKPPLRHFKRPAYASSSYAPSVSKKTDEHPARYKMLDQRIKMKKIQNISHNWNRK
Source text: as §1

[1] = 15 nM tritium labelled cAMP, 1 hr at room temperature, SPA beads

Sequence of PDE1B (Q01064 whole entry): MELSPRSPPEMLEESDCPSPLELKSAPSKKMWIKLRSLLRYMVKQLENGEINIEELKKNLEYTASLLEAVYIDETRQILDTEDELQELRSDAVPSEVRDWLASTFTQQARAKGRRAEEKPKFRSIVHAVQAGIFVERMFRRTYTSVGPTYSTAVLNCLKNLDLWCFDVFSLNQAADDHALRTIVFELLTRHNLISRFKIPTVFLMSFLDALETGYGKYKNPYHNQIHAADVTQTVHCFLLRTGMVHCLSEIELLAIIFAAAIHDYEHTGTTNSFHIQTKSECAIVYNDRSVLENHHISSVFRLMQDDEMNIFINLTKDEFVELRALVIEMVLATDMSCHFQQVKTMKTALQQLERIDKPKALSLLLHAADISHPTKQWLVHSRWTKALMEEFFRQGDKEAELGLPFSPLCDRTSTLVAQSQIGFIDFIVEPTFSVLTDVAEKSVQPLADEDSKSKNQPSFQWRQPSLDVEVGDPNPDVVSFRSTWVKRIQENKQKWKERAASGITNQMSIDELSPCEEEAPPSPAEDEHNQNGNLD

SMILES	IC50 (PDE1A)	IC50 (PDE1C; [1])	other results
Cc1nn(C(C)C)c2c(NCc3cnn(C)c3)cc(-c3cccnc3N(C)C)nc12 [Example 201, 5-[2-(dimethylamino)-3-pyridyl]-1-isopropyl-3-methyl-N-[(1-methylpyrazol-4-yl)methyl]pyrazolo[4,3-b]pyridin-7-amine]			IC50 (PDE1B; read-out: PDE1B, IC50): 230 nM
COc1ncccc1CNc1cc(-c2cccnc2OC)nc2c(C)nn(C(C)C)c12 [Example 95, 1-isopropyl-5-(2-methoxy-3-pyridyl)-N-[(2-methoxy-3-pyridyl)methyl]-3-methyl-pyrazolo[4,3-b]pyridin-7-amine]	42 nM		
CCOc1ncccc1-c1cc(NCc2ncccn2)c2c(n1)c(C)nn2C(C)C [Example 74, 5-(2-ethoxy-3-pyridyl)-1-isopropyl-3-methyl-N-(pyrimidin-2-ylmethyl)pyrazolo[4,3-b]pyridin-7-amine]	2.1 nM	8.1 nM	
CCCOc1ncccc1-c1cc(NCc2cc[nH]n2)c2c(n1)c(C)nn2C(C)CC (single isomer, unassigned) [Example 135, 3-methyl-1-[1-methylpropyl]-5-(2-propoxy-3-pyridyl)-N-(1H-pyrazol-3-ylmethyl)pyrazolo[4,3-b]pyridin-7-amine]	1.9 nM	3.6 nM	
CCOc1ncccc1-c1cc(NCc2cn(C)cn2)c2c(n1)c(C)nn2C(C)CC (single isomer, unassigned) [Example 132, 5-(2-ethoxy-3-pyridyl)-3-methyl-N-[(1-methylimidazol-4-yl)methyl]-1-[1-methylpropyl]pyrazolo[4,3-b]pyridin-7-amine]			IC50 (PDE1B; PDE1B, IC50 (nM)): 0.045 nM
CCOc1ncccc1-c1cc(NCc2nnco2)c2c(n1)c(C)nn2C(C)C [Example 59, 5-(2-ethoxy-3-pyridyl)-1-isopropyl-3-methyl-N-(1,3,4-oxadiazol-2-ylmethyl)pyrazolo[4,3-b]pyridin-7-amine]	55 nM	120 nM	
CCOc1ncccc1-c1cc(NCc2nnc(C)o2)c2c(cnn2C(C)CC)n1 (single isomer, unassigned) [Example 139, 5-(2-ethoxy-3-pyridyl)-N-[(5-methyl-1,3,4-oxadiazol-2-yl)methyl]-1-[1-methylpropyl]pyrazolo[4,3-b]pyridin-7-amine]	330 nM		IC50 (PDE1C): 530 nM
CCOc1ncccc1-c1cc(NCc2noc(C)n2)c2c(n1)c(C)nn2C(C)CC (single isomer, unassigned) [Example 128, 5-(2-ethoxy-3-pyridyl)-3-methyl-N-[(5-methyl-1,2,4-oxadiazol-3-yl)methyl]-1-[1-methylpropyl]pyrazolo[4,3-b]pyridin-7-amine]			IC50 (PDE1B; PDE1B, IC50 (nM)): 0.26 nM
CCCOc1ncccc1-c1cc(NCc2cn[nH]c2)c2c(n1)c(C)nn2C(C)C [Example 196, 1-isopropyl-3-methyl-5-(2-propoxy-3-pyridyl)-N-(1H-pyrazol-4-ylmethyl)pyrazolo[4,3-b]pyridin-7-amine]	18 nM	27 nM	
CCOc1ncccc1-c1cc(NCc2cc(C)n(C)n2)c2c(cnn2C(C)C)n1 [Example 44, N-[(1,5-dimethylpyrazol-3-yl)methyl]-5-(2-ethoxy-3-pyridyl)-1-isopropyl-pyrazolo[4,3-b]pyridin-7-amine]	19 nM	70 nM	
CCOc1ncccc1-c1cc(NCc2nncn2C)c2c(n1)c(C)nn2C(C)C [Example 162, 5-(2-ethoxy-3-pyridyl)-1-isopropyl-3-methyl-N-[(4-methyl-1,2,4-triazol-3-yl)methyl]pyrazolo[4,3-b]pyridin-7-amine]	100 nM	180 nM	
CCOc1ncccc1-c1cc(NCc2ncn(C)n2)c2c(n1)c(C)nn2C(C)CC (single isomer, unassigned) [Example 121, 5-(2-ethoxy-3-pyridyl)-3-methyl-1-[1-methylpropyl]-N-[(1-methyl-1,2,4-triazol-3-yl)methyl]pyrazolo[4,3-b]pyridin-7-amine]			IC50 (PDE1B; PDE1B, IC50 (nM)): 0.47 nM
Cc1coc(-c2cc(NCc3cnn(C)c3)c3c(n2)c(C)nn3C(C)C)n1 [Example 202, 1-isopropyl-3-methyl-N-((1-methyl-1H-pyrazol-4-yl)methyl)-5-(4-methyloxazol-2-yl)-1H-pyrazolo[4,3-b]pyridin-7-amine]	92 nM	170 nM	
CCOc1ncccc1-c1cc(NCc2nccc(C)n2)c2c(n1)c(C)nn2C(C)C [Example 75, 5-(2-ethoxy-3-pyridyl)-1-isopropyl-3-methyl-N-[(4-methylpyrimidin-2-yl)methyl]pyrazolo[4,3-b]pyridin-7-amine]	9.9 nM	33 nM	
CCOc1ncccc1-c1cc(NCc2ccncn2)c2c(n1)c(C)nn2C(C)C [Example 73, 5-(2-ethoxy-3-pyridyl)-1-isopropyl-3-methyl-N-(pyrimidin-4-ylmethyl)pyrazolo[4,3-b]pyridin-7-amine]	81 nM	140 nM	
CCOc1ncccc1-c1cc(NCc2cc(C)no2)c2c(cnn2C(C)C)n1 [Example 42, 5-(2-ethoxy-3-pyridyl)-1-isopropyl-N-[(3-methylisoxazol-5-yl)methyl]pyrazolo[4,3-b]pyridin-7-amine]	82 nM	180 nM	

SMILES	IC50 (PDE1A)	IC50 (PDE1C; [1])	other results
CCOc1ncccc1-c1cc(NCc2cnc(C)o2)c2c(n1)c(C)nn2C(C)CC (single isomer, unassigned) [Example 133, 5-(2-ethoxy-3-pyridyl)-3-methyl-N-[(2-methyloxazol-5-yl)methyl]-1-[1-methylpropyl]pyrazolo[4,3-b]pyridin-7-amine]			IC50 (PDE1B; PDE1B, IC50 (nM)): 1.3 nM
CCOc1ncccc1-c1cc(NCc2cc(CF)on2)c2c(n1)c(C)nn2C(C)C [Example 166, 5-(2-ethoxy-3-pyridyl)-N-[[5-(fluoromethyl)isoxazol-3-yl]methyl]-1-isopropyl-3-methyl-pyrazolo[4,3-b]pyridin-7-amine]			IC50 (PDE1B; read-out: PDE1B, IC50): 0.16 nM
CCOc1ncccc1-c1cc(NCc2noc(C)n2)c2c(cnn2C(C)C)n1 [Example 43, 5-(2-ethoxy-3-pyridyl)-1-isopropyl-N-[(5-methyl-1,2,4-oxadiazol-3-yl)methyl]pyrazolo[4,3-b]pyridin-7-amine]	30 nM	80 nM	
CCCn1cc(CNc2cc(-c3cccnc3OCC)nc3c(C)nn(C(C)C)c23)cn1 [Example 110, 5-(2-ethoxy-3-pyridyl)-1-isopropyl-3-methyl-N-[(1-propylpyrazol-4-yl)methyl]pyrazolo[4,3-b]pyridin-7-amine]	11 nM	8.5 nM	
CCOc1ncccc1-c1cc(NCc2cc(C)[nH]n2)c2c(n1)c(C)nn2C(C)CC (single isomer, unassigned) [Example 131, 5-(2-ethoxy-3-pyridyl)-3-methyl-1-[1-methylpropyl]-N-[(5-methyl-1H-pyrazol-3-yl)methyl]pyrazolo[4,3-b]pyridin-7-amine]			IC50 (PDE1B; PDE1B, IC50 (nM)): 0.042 nM
CCOc1ncccc1-c1cc(NCc2csc(C)n2)c2c(n1)c(C)nn2C(C)C [Example 11, 5-(2-ethoxy-3-pyridyl)-1-isopropyl-3-methyl-N-[(2-methylthiazol-4-yl)methyl]pyrazolo[4,3-b]pyridin-7-amine]	9.6 nM	30 nM	
CCOc1ncccc1-c1cc(NCc2cnn(C)c2)c2c(n1)c(C)nn2C(C)C [Example 9, 5-(2-ethoxypyridin-3-yl)-1-isopropyl-3-methyl-N-((1-methyl-1H-pyrazol-4-yl)methyl)-1H-pyrazolo[4,3-b]pyridin-7-amine]	2.6 nM	17 nM	
CCOc1ncccc1-c1cc(NCc2cc[nH]n2)c2c(cnn2C(C)CC)n1 (single isomer, unassigned) [Example 137, 5-(2-ethoxy-3-pyridyl)-1-[1-methylpropyl]-N-(1H-pyrazol-3-ylmethyl)pyrazolo[4,3-b]pyridin-7-amine]	180 nM		IC50 (PDE1C): 340 nM
CCOc1ncccc1-c1cc(NCc2cc[nH]n2)c2c(n1)c(C)nn2C(C)CC (single isomer, unassigned) [Example 120, 5-(2-ethoxy-3-pyridyl)-3-methyl-1-[1-methylpropyl]-N-(1H-pyrazol-3-ylmethyl)pyrazolo[4,3-b]pyridin-7-amine]			IC50 (PDE1C): 7.6 nM
CCOc1ncccc1-c1cc(OCc2cnc(C)o2)c2c(n1)c(C)nn2C(C)C [Example 72, 5-[[5-(2-ethoxy-3-pyridyl)-1-isopropyl-3-methyl-pyrazolo[4,3-b]pyridin-7-yl]oxymethyl]-2-methyl-oxazole]	14 nM	39 nM	
CCOc1ncccc1-c1cc(NCc2cc(C)no2)c2c(n1)c(C)nn2C(C)C [Example 10, 5-(2-ethoxy-3-pyridyl)-1-isopropyl-3-methyl-N-[(3-methylisoxazol-5-yl)methyl]pyrazolo[4,3-b]pyridin-7-amine]	4.1 nM	14 nM	
Cc1nn(C(C)C)c2c(NCc3cccnc3C(F)(F)F)cc(-c3ccc[nH]c3=O)nc12 [Example 193, 3-[1-isopropyl-3-methyl-7-[[2-(trifluoromethyl)-3-pyridyl]methylamino]pyrazolo[4,3-b]pyridin-5-yl]-1H-pyridin-2-one]	320 nM	880 nM	
CCOc1ncccc1-c1cc(NCc2nnn(C)n2)c2c(n1)c(C)nn2C(C)C [Example 8, 5-(2-ethoxy-3-pyridyl)-1-isopropyl-3-methyl-N-[(2-methyltetrazol-5-yl)methyl]pyrazolo[4,3-b]pyridin-7-amine]	2.9 nM	8.9 nM	
CCC1COC(=O)N1c1cc(NCc2cnn(C)c2)c2c(n1)c(C)nn2C(C)C (stereo not shown) [Example 156, 4-ethyl-3-[1-isopropyl-3-methyl-7-[(1-methylpyrazol-4-yl)methylamino]pyrazolo[4,3-b]pyridin-5-yl]oxazolidin-2-one]		5.1 nM	
CCOc1ncccc1-c1cc(NCc2cnc(C)o2)c2c(n1)c(C)nn2C(C)C [Example 4, 5-(2-ethoxy-3-pyridyl)-1-isopropyl-3-methyl-N-[(2-methyloxazol-5-yl)methyl]pyrazolo[4,3-b]pyridin-7-amine]	8.6 nM	19 nM	
